Measurements reported in patent publication US20240317776A1, “SOLID FORMS OF 4-(3,3-DIFLUORO-2,2-DIMETHYL-PROPANOYL)-3,5-DIHYDRO-2H-PYRIDO[3,4-F][1,4]OXAZEPINE-9-CARBONITRILE” (Denali Therapeutics Inc., priority 2022, published 2024).

Tests used:
Format in all cases: physicochemical
[1] = Physical and chemical stability of solid on storage (XRPD, HPLC purity)
Method: To evaluate the physical and chemical stability, Compound (1) Form A was stored in 3 conditions (40° C./75% RH; 25° C./60% RH; and 60° C.) for one and four weeks.

[2] = Dynamic vapor sorption (DVS)
Method: DVS was measured via a SMS (Surface Measurement Systems) DVS Intrinsic. The relative humidity at 25° C. were calibrated against deliquescence point of LiCl, Mg(NO3)2 and KCl.
(onset temperature). Considering the low TGA weight loss and single sharp DSC endotherm, Form A was postulated to be an anhydrate. […] The HPLC purity of starting material was measured as 99.78 area % (see chromatogram of FIG. 6) and the impurity summary is listed in Table 2.

[3] = Kinetic solubility in bio-relevant media and H2O; settings: for Final Form: 37° C.
Method: Solids were suspended in FaSSIF, FeSSIF, SGF and H2O with target conc. of ˜10 mg/mL. The suspensions were agitated on a rolling incubator at 25 rpm (in the incubator set at 37° C.) for 1, 4 and 24 hrs. At each time point, 1 mL of the suspension was pipetted out for centrifugation at 15000 rpm (3 min) and filtration through 0.45 μm membrane to obtain supernatant for HPLC solubility and pH tests, the residual solids were analyzed by XRPD.

[4] = 24-Hrs solubility in pH buffers; settings: for Final Form: 24 hrs
Method: 24-Hrs solubility of Form A was measured in pH buffers (i.e., pH 2.0, 4.0, 6.0, 7.0, 8.0) at RT. Solids were suspended in pH buffers with target conc. of ˜10 mg/mL.

[5] = Solution stability in pH buffers; settings: 37° C.
Method: Solution stability study was performed in pH 2.0/4.0/6.0/7.0 (24 hrs) and pH 8.0 (24 hrs and 96 hrs) buffers. Solids were dissolved with pH buffers with target conc. of ˜0.5 mg/ml to form clear solutions and stored at 37° C. for 24 hrs or 96 hrs.

[6] = all conditions (40° C./75% RH, 25° C./60% RH, 60° C.; one and four weeks)
[7] = pH 7.0 (50 mM Phosphate), 24 hrs
[8] = pH 8.0 (50 mM Phosphate), 24 hrs
[9] = pH 8.0 (50 mM Phosphate), 96 hrs

Question: For `CC(C)(C(=O)N1CCOc2c(C#N)cncc2C1)C(F)F` [Form A, 4-(3,3-difluoro-2,2-dimethyl-propanoyl)-3,5-dihydro-2H-pyrido[3,4-f][1,4]oxazepine-9-carbonitrile], which “API (RRT 1.00)” value ([1]; 1 week, 25° C./60% RH) is on record?
Answer: 99.92 % Area

Question: What about the Description ([1]; 1 week, 25° C./60% RH) of the same compound?
Answer: White powder

Question: And the “Final Form” value ([1]; 1 week, 25° C./60% RH)?
Answer: Form A

Question: And the “Imp.1 (RRT 0.68)” value ([1]; 1 week, 25° C./60% RH)?
Answer: 0.08 % Area

Question: And the “Purity vs. initial (%)” value ([1]; 1 week, 25° C./60% RH)?
Answer: 100.0%

Question: And the “API (RRT 1.00)” value ([1]; 1 week, 40° C./75% RH)?
Answer: 99.89 % Area

Question: What about the Description ([1]; 1 week, 40° C./75% RH) of the same compound?
Answer: White powder

Question: And the “Final Form” value ([1]; 1 week, 40° C./75% RH)?
Answer: Form A

Question: What about the “Imp.1 (RRT 0.68)” value ([1]; 1 week, 40° C./75% RH) of the same compound?
Answer: 0.11 % Area

Question: And the “Purity vs. initial (%)” value ([1]; 1 week, 40° C./75% RH)?
Answer: 100.0%

Question: What about the “API (RRT 1.00)” value ([1]; 1 week, 60° C.) of the same compound?
Answer: 99.90 % Area

Question: And the Description ([1]; 1 week, 60° C.)?
Answer: White powder

Question: And the “Final Form” value ([1]; 1 week, 60° C.)?
Answer: Form A

Question: And the “Imp.1 (RRT 0.68)” value ([1]; 1 week, 60° C.)?
Answer: 0.10 % Area

Question: And the “Purity vs. initial (%)” value ([1]; 1 week, 60° C.)?
Answer: 100.0%

Question: What about the “API (RRT 1.00)” value ([1]; 4 weeks, 25° C./60% RH) of the same compound?
Answer: 99.90 % Area

Question: And the Description ([1]; 4 weeks, 25° C./60% RH)?
Answer: White powder

Question: What about the “Final Form” value ([1]; 4 weeks, 25° C./60% RH) of the same compound?
Answer: Form A

Question: And the “Imp.1 (RRT 0.68)” value ([1]; 4 weeks, 25° C./60% RH)?
Answer: 0.10 % Area

Question: And the “Purity vs. initial (%)” value ([1]; 4 weeks, 25° C./60% RH)?
Answer: 100.0%

Question: And the “API (RRT 1.00)” value ([1]; 4 weeks, 40° C./75% RH)?
Answer: 99.90 % Area

Question: What about the Description ([1]; 4 weeks, 40° C./75% RH) of the same compound?
Answer: White powder

Question: What about the “Final Form” value ([1]; 4 weeks, 40° C./75% RH) of the same compound?
Answer: Form A

Question: And the “Imp.1 (RRT 0.68)” value ([1]; 4 weeks, 40° C./75% RH)?
Answer: 0.10 % Area

Question: What about the “Purity vs. initial (%)” value ([1]; 4 weeks, 40° C./75% RH) of the same compound?
Answer: 100.0%

Question: What about the “API (RRT 1.00)” value ([1]; 4 weeks, 60° C.) of the same compound?
Answer: 99.90 % Area

Question: And the Description ([1]; 4 weeks, 60° C.)?
Answer: White powder

Question: What about the “Final Form” value ([1]; 4 weeks, 60° C.) of the same compound?
Answer: Form A

Question: And the “Imp.1 (RRT 0.68)” value ([1]; 4 weeks, 60° C.)?
Answer: 0.10 % Area

Question: What about the “Purity vs. initial (%)” value ([1]; 4 weeks, 60° C.) of the same compound?
Answer: 100.0%

Question: And the “HPLC purity change on storage” value [1, 6]?
Answer: no obvious HPLC purity change

Question: And the “form change on storage (XRPD)” value [1, 6]?
Answer: no form change

Question: What about the “water uptake (DVS)” value ([2]; 25° C./80% RH) of the same compound?
Answer: 0.024%

Question: And the “form change after DVS test (XRPD)” value ([2]; after DVS test)?
Answer: no form change

Question: What about the “Final Form” value ([3]; FaSSIF (pH 6.5), 1 hr) of the same compound?
Answer: Form A

Question: And the “Final Form” value ([3]; FaSSIF (pH 6.5), 4 hr)?
Answer: Form A

Question: What about the “Final Form” value ([3]; FaSSIF (pH 6.5), 24 hr) of the same compound?
Answer: Form A

Question: And the “Final Form” value ([3]; FeSSIF (pH 5.0), 1 hr)?
Answer: Form A

Question: What about the “Final Form” value ([3]; FeSSIF (pH 5.0), 4 hr) of the same compound?
Answer: Form A

Question: And the “Final Form” value ([3]; FeSSIF (pH 5.0), 24 hr)?
Answer: Form A

Question: What about the “Final Form” value ([3]; H2O (pH 6.5), 1 hr) of the same compound?
Answer: Form A

Question: And the “Final Form” value ([3]; H2O (pH 6.5), 4 hr)?
Answer: Form A

Question: And the “Final Form” value ([3]; H2O (pH 6.5), 24 hr)?
Answer: Form A

Question: What about the “Final Form” value ([3]; SGF (pH 1.8), 1 hr) of the same compound?
Answer: Form A

Question: And the “Final Form” value ([3]; SGF (pH 1.8), 4 hr)?
Answer: Form A

Question: And the “Final Form” value ([3]; SGF (pH 1.8), 24 hr)?
Answer: Form A

Question: And the “form change after kinetic solubility test (XRPD)” value ([3]; bio-relevant media or H2O)?
Answer: No form change

Question: And the Final Form ([4]; pH 2.0 (50 mM HCl—KCl))?
Answer: Form A

Question: And the Final Form ([4]; pH 4.0 (50 mM Citrate))?
Answer: Form A

Question: And the Final Form ([4]; pH 6.0 (50 mM Citrate))?
Answer: Form A

Question: What about the Final Form ([4]; pH 7.0 (50 mM Phosphate)) of the same compound?
Answer: Form A

Question: And the Final Form ([4]; pH 8.0 (50 mM Phosphate))?
Answer: Form A

Question: And the “form change after equilibrium solubility evaluation (XRPD)” value ([4]; pH buffers)?
Answer: no form change

Question: What about the “API (RRT 1.00)” value ([5]; pH 2.0 (50 mM HCl—KCl), 24 hrs) of the same compound?
Answer: 84.93 % Area

Question: And the “Imp. 1 (RRT 0.66)” value ([5]; pH 2.0 (50 mM HCl—KCl), 24 hrs)?
Answer: 0.15 % Area

Question: And the “Imp. 1 (RRT 0.70)” value ([5]; pH 2.0 (50 mM HCl—KCl), 24 hrs)?
Answer: 0.67 % Area

Question: What about the “Imp. 1 (RRT 0.76)” value ([5]; pH 2.0 (50 mM HCl—KCl), 24 hrs) of the same compound?
Answer: 14.25 % Area

Question: And the “Imp. 1 (RRT 1.05)” value ([5]; pH 2.0 (50 mM HCl—KCl), 24 hrs)?
Answer: — (—: <0.05 area %)

Question: And the “Purity vs. initial (%)” value ([5]; pH 2.0 (50 mM HCl—KCl), 24 hrs)?
Answer: 85.1%

Question: And the degradation in solution ([5]; pH 2.0 and pH 4.0 buffers, 24 hrs)?
Answer: Degradation was observed

Question: And the “API (RRT 1.00)” value ([5]; pH 4.0 (50 mM Citrate), 24 hrs)?
Answer: 98.42 % Area

Question: And the “Imp. 1 (RRT 0.66)” value ([5]; pH 4.0 (50 mM Citrate), 24 hrs)?
Answer: 0.15 % Area

Question: What about the “Imp. 1 (RRT 0.70)” value ([5]; pH 4.0 (50 mM Citrate), 24 hrs) of the same compound?
Answer: — (—: <0.05 area %)

Question: And the “Imp. 1 (RRT 0.76)” value ([5]; pH 4.0 (50 mM Citrate), 24 hrs)?
Answer: 0.38 % Area

Question: And the “Imp. 1 (RRT 1.05)” value ([5]; pH 4.0 (50 mM Citrate), 24 hrs)?
Answer: 0.06 % Area

Question: And the “Purity vs. initial (%)” value ([5]; pH 4.0 (50 mM Citrate), 24 hrs)?
Answer: 98.5%

Question: And the “API (RRT 1.00)” value ([5]; pH 6.0 (50 mM Citrate), 24 hrs)?
Answer: 99.75 % Area

Question: And the “Imp. 1 (RRT 0.66)” value ([5]; pH 6.0 (50 mM Citrate), 24 hrs)?
Answer: 0.13 % Area

Question: And the “Imp. 1 (RRT 0.70)” value ([5]; pH 6.0 (50 mM Citrate), 24 hrs)?
Answer: — (—: <0.05 area %)

Question: And the “Imp. 1 (RRT 0.76)” value ([5]; pH 6.0 (50 mM Citrate), 24 hrs)?
Answer: 0.06 % Area

Question: What about the “Imp. 1 (RRT 1.05)” value ([5]; pH 6.0 (50 mM Citrate), 24 hrs) of the same compound?
Answer: 0.06 % Area

Question: And the “Purity vs. initial (%)” value ([5]; pH 6.0 (50 mM Citrate), 24 hrs)?
Answer: 99.8%

Question: And the “API (RRT 1.00)” value [5, 7]?
Answer: 99.78 % Area

Question: And the “Imp. 1 (RRT 0.66)” value [5, 7]?
Answer: 0.15 % Area

Question: What about the “Imp. 1 (RRT 0.70)” value [5, 7] of the same compound?
Answer: — (—: <0.05 area %)

Question: And the “Imp. 1 (RRT 0.76)” value [5, 7]?
Answer: — (—: <0.05 area %)

Question: And the “Imp. 1 (RRT 1.05)” value [5, 7]?
Answer: 0.07 % Area

Question: What about the “Purity vs. initial (%)” value [5, 7] of the same compound?
Answer: 99.9%

Question: And the “API (RRT 1.00)” value [5, 8]?
Answer: 99.81 % Area

Question: What about the “Imp. 1 (RRT 0.66)” value [5, 8] of the same compound?
Answer: 0.13 % Area

Question: What about the “Imp. 1 (RRT 0.70)” value [5, 8] of the same compound?
Answer: — (—: <0.05 area %)

Question: And the “Imp. 1 (RRT 0.76)” value [5, 8]?
Answer: — (—: <0.05 area %)

Question: And the “Imp. 1 (RRT 1.05)” value [5, 8]?
Answer: 0.06 % Area

Question: What about the “Purity vs. initial (%)” value [5, 8] of the same compound?
Answer: 100.0%

Question: What about the “API (RRT 1.00)” value [5, 9] of the same compound?
Answer: 99.83 % Area

Question: And the “Imp. 1 (RRT 0.66)” value [5, 9]?
Answer: 0.13 % Area

Question: What about the “Imp. 1 (RRT 0.70)” value [5, 9] of the same compound?
Answer: — (—: <0.05 area %)

Question: What about the “Imp. 1 (RRT 0.76)” value [5, 9] of the same compound?
Answer: — (—: <0.05 area %)

Question: And the “Imp. 1 (RRT 1.05)” value [5, 9]?
Answer: 0.04 % Area

Question: And the “Purity vs. initial (%)” value [5, 9]?
Answer: 100.0%
